According to publication PMC11375702, “Early Preclinical Studies of Ergosterol Peroxide and Biological Evaluation of Its Derivatives” (ACS Omega, 2024):
Converted amounts (≈) assume the structure as drawn. Read-outs that look alike come from different tables or passages of the source.

Key:
[1] = system: SUM149; assay: CellTiter-Glo 72 h cytotoxicity assay, SUM149; assay type: cell-based; settings: Homo sapiens; for EC50: SUM149, CTG assay, 72 h; for IC50: calculated from SUM149 EC50
Source text: (§1) First, topological polar surface area (tPSA), a widely used molecular descriptor that provides insight into compound absorption and membrane penetration, was theoretically calculated for these compounds along with the estimated c log P (partition coefficient) or log P to further assess their global therapeutic potential.[18],[19] Lipophilicity, a measurable and predictable physical property, can provide practical guidance in designing compounds with improved molecular properties.[20] The tPSA sums the contribution of the surface area of polar atoms, enabling us to determine whether the compounds are more likely to be cell membrane permeable. The aqueous solubility was measured by ultraviolet/visible (UV/vis) spectroscopy.[21] […] EP shares an improved cLogP, but still relatively high from a desirable drug candidate (2.5–3.5). […] Compound 4 has a higher c log P, while compounds 5–10 have lower c log P values. To determine LiPE (lipophilicity efficiency), the following formula was used: LiPE = pIC50 – log P, according to established methods.[22],[23] […] The obtained EC50 values for the newly generated EP derivatives were within a similar range for other derivatives previously described against TNBC models.[17]
(§2) The following stable human cell lines were utilized for this study: SUM149 and MDA-MB-231 (breast cancer models) and BJ (human normal fibroblast, foreskin). Cells were purchased from BioIVT or the American Type Culture Collection (ATCC). Cells were cultured in F-12-Nutrient Mixture (SUM149), DMEM (MDA-MB-231), or EMEM (BJ) medium supplemented with 10% fetal bovine serum (Sigma-Aldrich, St. Louis, MO) and 2 mmol of L-glutamine, at 37 °C in a humidified 5% CO2 atmosphere (no antibiotics) as indicated by the manufacturer. Cell cultures were grown to 80–90% confluence before use, except where otherwise specified. Our cell lines are authenticated every 3 months using the CellCheck service (Idexx BioResearch, Westbrook, ME). Cells were tested for mycoplasma prior to use (MycoAlert detection Kit Lonza LT07–318) and discarded if they tested positive. A cell proliferation assay was performed using the CellTiter-Glo (Promega Corp., Madison, WI) luminescent cell viability assay kit. Cells were detached with trypsin, counted, and seeded in white polystyrene flat-bottom sterile 96-well tissue culture-treated plates (catalog no. 3917, Corning, Glendale, Arizona) and incubated overnight at 37 °C. MDA-MB231, SUM149, and BJ cells were seeded into 96-well plates at concentrations experimentally determined (0.4 × 10^4, 0.25 × 10^4, and 0.3 × 10^4 cells per well, respectively) to ensure logarithmic growth during the duration of the experiment and to prevent adverse effects on cell growth by DMSO exposure. The plates were incubated for 12 h before treatment. Stock solutions of test compounds (10 mM in DMSO) in nine 3-fold serial dilutions were dispensed. The final concentration of DMSO was 0.3% (v/v) in each well. The positive control used was staurosporine (10 μM) as the kill-all control, and the negative control used is DMSO as we have published. Staurosporine is a potent alkaloid inducer of various cell death modalities but primarily apoptosis, making it a reliable positive control for viability assays. The plates were incubated for 72 h and then quenched with CTG at 50 μL per well at RT. Plates were then incubated at RT for 20 min and centrifuged at 1000 rpm for 1 min. Luminescence was read on a CLARIOstar Plus plate reader (BMG LabTech, Ortenberg, Germany).
Three or four technical replicates were conducted for each experimental condition, and a minimum of three independent experiments were conducted for each assay. In vitro ADME values were expressed as mean ± standard deviation (SD) of at least three independent experiments. One-way analysis of variance (ANOVA) was adopted for comparisons among groups using the GraphPad Prism 10.2.3 (GraphPad Software, San Diego, CA). A difference of P < 0.05 was considered as statistically significant. […]

[2] = system: MDA-MB-231; assay: CellTiter-Glo 72 h cytotoxicity assay, MDA-MB-231; assay type: cell-based; settings: Homo sapiens, CTG assay, read-out: MDA-MB231 (EC50)
Description: as §2
(§3) Three or four technical replicates were conducted for each experimental condition, and a minimum of three independent experiments were conducted for each assay. In vitro ADME values were expressed as mean ± standard deviation (SD) of at least three independent experiments. One-way analysis of variance (ANOVA) was adopted for comparisons among groups using the GraphPad Prism 10.2.3 (GraphPad Software, San Diego, CA). A difference of P < 0.05 was considered as statistically significant. Data are expressed as mean ± SEM. For CTG, the mean luminescence of each experimental treatment group was normalized as a percentage of the mean intensity of untreated controls (DMSO as vehicle). EC50 values were calculated from dose–response curve fitting via nonlinear regression using GraphPad Prism 10.2.3 (GraphPad Software, San Diego, CA). A therapeutic index (TI) between normal and tumor cell lines can be determined (EC50 non-neoplastic cell line BJ)/(EC50 cancer cell line). In vivo studies were analyzed using mixed-effects regression models to compare the changes in tumor volume over time by treatment group. Tumor volume reduction was compared using ANOVA with repeated measures, and all data was considered significant when P < 0.05.

[3] = Aqueous solubility by UV/vis absorbance; assay type: physicochemical; settings: kinetic from dmso stock
Source text: as §1
Briefly, clear 96-well PS plates with lids (catalog no. 3903, Corning, Glendale, Arizona) were used for spectrophotometric determination of absorbance with a CLARIOstar Plus plate reader (BMG LabTech, Ortenberg, Germany) to determine at which concentration the compounds are precipitating out of solution. Decrease in transmittance of 2% or higher was considered significant. Compound solutions of 10 mM in DMSO were prepared followed by a serial dilution series, which were vortexed to ensure the solutions were homogeneous. The 96-well plate was then prepared with distilled H2O and allowed to equilibrate for 1.5 h. Then, the plate was placed in a CLARIOstar Plus plate reader or Cytation C10 (Biotek, Agilent) and set to detect absorbance at 220–700 nm. Each well was read individually. Three replicate assays were conducted for each experimental condition, and a minimum of three independent experiments were conducted.

[4] = system: BJ; assay: CellTiter-Glo 72 h cytotoxicity assay, BJ normal fibroblasts; assay type: cell-based; settings: Homo sapiens, CTG assay, noncancerous fibroblasts
Description: as §2, §3

[5] = Metabolic stability in mouse liver microsomes; assay type: in vitro ADME
Description: (§5) Human and/or mouse microsomal degradation was determined using multiple time points to monitor the rate of disappearance of the parent compound during incubation following the method described by Di et al.[51],[52] […] The metabolic stability was evaluated via the half-life from the least-squares fit of the multiple time points based on first-order kinetics. Waters ACQUITY-TOQ UPLC-MS-MS-UV system was used to analyze the samples as established in various MS core facilities.[51],[52]

[6] = Metabolic stability in human liver microsomes; assay type: in vitro ADME
Description: as §5

[7] = Plasma protein binding, rapid equilibrium dialysis (mouse); assay type: in vitro ADME
Description: (§4) This assay determines the plasma protein binding of a drug or compound and free drug concentration in plasma using rapid equilibrium dialysis. We use the Single-Use RED (rapid equilibrium dialysis, Thermo Scientific) devices to allow the aqueous component of plasma containing the free drug/compound through a dialysis membrane (MWCO ∼ 8000). Sample quantification is determined using a Waters ACQUITY-SOQ UPLC-MS-ELDS-UV system.

[8] = Plasma protein binding, rapid equilibrium dialysis (human); assay type: in vitro ADME
Description: as §4

[9] = in vitro; settings: male, Balb/c, mouse, plasma
Description: (§6) Briefly, pooled blood from 3 animals for experiment (male Balb/c 6–8w from the division of laboratory animal medicine in-house breeding colony) was collected, and the heparinized plasma was prepared. Plasma and test compounds were added to individual wells of a 96-well microtiter plate. Compounds were incubated at 37 °C for the provided time points. All tests were performed in triplicates. The test compound was incubated with plasma at six different time points. The reaction was terminated by methanol containing an internal standard. After centrifugation, the concentration of the test compound in the supernatant was quantified by LC-MS/MS.
(§7) Plasma stability assay: Briefly, pooled blood from 3 animals for experiment (male Balb/c 6-8w
(§8) from the division of laboratory animal medicine in-house breeding colony) was collected, and
(§9) the heparinized plasma was prepared. Plasma and test compounds were added to the individual
(§10) wells of a 96-well microtiter plate. Compounds were incubated at 37°C for the provided time
(§11) points. All tests were performed in triplicates. Then, the test compound was incubated with
(§12) plasma at six different time points. The reaction was terminated by the addition of methanol
(§13) containing an internal standard. After centrifugation, the concentration of the test compound in
(§14) the supernatant was quantified by LC-MS/MS. The percentage of test compound remaining at
(§15) compounds are known to be metabolized by plasma esterases,1 and were also incubated with
each batch of test compound.
(§16) A standard protocol and MS method was used for the plasma stability experiment. The extraction
(§17) procedure for plasma/tissue samples and the spiked plasma/tissue calibration standards were
(§18) identical: A 25 µL of study sample or spiked plasma/tissue calibration standard was added to
(§19) individual pre-labeled micro-centrifuge tubes followed by 100 µL of internal standard prepared
(§20) in Acetonitrile (Albendazole, 500 ng/mL) was added except for blank, where 100 µL of
(§21) Acetonitrile was added. Samples were vortexed for 5 minutes. Samples were centrifuged for 5
(§22) minutes at a speed of 4000 rpm at 4°C. Following centrifugation, 100 µL of clear supernatant
(§23) was transferred in 96 well plates and analyzed using LC-MS/MS mode. The LC system
(§24) comprises of a binary pump that can mix two mobile phases: A = Water+0.1% formic acid; B =
(§25) acetonitrile +0.1%formic acid. The system was operated in gradient mode using a 6 minute
(§26) min, 10-90% A to B in 5.5-6 min, and then hold at this gradient, using a Phenomenex Luna, 150
(§27) X 4.6 mm, 5 µm column. Source Parameter: positive, Ion Spray Voltage 5500, Temperature
550C, interface heater on.

[10] = in vitro; settings: human, plasma
[11] = Caco-2 permeability assay; assay type: in vitro ADME; settings: human
Description: It was performed in the 96-well Transwell system with a modified method.[36] Caco-2 cells were maintained at 37 °C in a humidified incubator with an atmosphere of 5% CO2. The cells were cultured in MEM containing 20% FBS in […], 100 units/mL penicillin, and 100 μg/mL of streptomycin. The Caco-2 cells were seeded onto inserts of a 96-well plate at a density of 0.5 × 10^5 cells/insert and cultured in the MEM containing 20% FBS for 7 days. Each cultured monolayer on the 96-well plate was washed twice with HBSS/HEPES (10 mM, pH 7.4). The permeability assay was initiated by the addition of each compound solution (10 μmol/L) into inserts (apical side, A) or receivers (basolateral side, B). The Caco-2 cell monolayers were incubated for 2 h at 37 °C. Fractions were collected from receivers (if apical to basal permeability) or inserts (if basal to apical permeability), and concentrations were assessed by UPLC/MS (Waters; Milford, MA). All compounds were tested in triplicates. The A → B (or B → A) apparent permeability coefficients ([…]) of each compound were calculated using the equation Pappa = dQ/dt × 1/AC0. The flux of a drug across the monolayer is dQ/dt (μmol/s). The initial drug concentration on the apical side is C0 (μmol/L). The surface area of the monolayer is A (cm^2).

[12] = Simulated gastric fluid (SGF) stability; assay type: in vitro ADME; settings: simulated gi fluid; simulated gastric fluid; read-out: SGF stability t1/2 (converted)
Description: The simulated gastric fluid (SGF) assay is an important element in determining the overall drug-like potential of compounds.[29],[30] Anecdotal studies of oral consumption of extracts by humans indicate positive outcomes of digestion of mixtures of EP and its related natural products found in G. lucidum.[2] […] Chlorambucil was used as positive control as previously described.[32],[33] […] Caco-2 permeability studies were conducted to validate and to provide information on EP’s ability to cross the intestinal barrier and its potential for interactions with drug transporters.[36]−[39] The rate of transport in both directions (A-B and B-A) across the cell monolayer enables an efflux ratio (B-A/A-B) to be determined, enabling us to determine if a compound undergoes active efflux (efflux ratio ≥2).

[13] = Plasma stability assay (mouse); settings: male, Balb/c, mouse, plasma
Description: as §6, §7, §8, §9, §10, §11, §12, §13, §14, §15
each batch of test compound.
as §16, §17, §18, §19, §20, §21, §22, §23, §24, §25, §26, §27
550C, interface heater on.

[14] = Plasma stability assay (human)

| SMILES | EC50 [1] [µM] | IC50 [1] [µM] | EC50 [2] [µM] | EC50 [4] [µM] | solubility at […] ([3]; water) [µg/mL] | further results |
| --- | --- | --- | --- | --- | --- | --- |
| CC(C)[C@@H](C)/C=C/[C@@H](C)[C@H]1CC[C@H]2C3=CC=C4C[C@@H](O)CC[C@]4(C)[C@H]3CC[C@]12C [Compound 1, Ergosterol] | 61 | 61.7 | > 120 |  |  | solubility at […] ([3]; distilled water, distilled H2O, UV/vis, read-out: solubility limit): 0.59 µg/mL (≈ 1.49 µM) |
| C=CC(=O)O[C@H]1CC[C@]2(C)[C@H]3CC[C@]4(C)[C@@H]([C@H](C)/C=C/[C@H](C)C(C)C)CC[C@H]4[C@@]34C=C[C@]2(C1)OO4 [Compound 4] | 31 | 31.6 | 47.6 | 92.5 | 24.1 (≈ 50 µM) |  |
| CC(C)[C@@H](C)C1OC1[C@@H](C)[C@H]1CC[C@@H]2[C@]1(C)CC[C@H]1[C@]23C=C[C@]2(C[C@@H](O)CC[C@]12C)OO3 (stereo partly shown) [Compound 5] | 2.74 | 2.75 | 15.7 | 70.4 | 5.56 (≈ 12.5 µM) |  |
| CC(C)[C@@H](C)C1OC1[C@@H](C)[C@H]1CC[C@@H]2[C@]1(C)CC[C@H]1[C@]23C=C[C@]2(C[C@@H](OS(=O)(=O)O)CC[C@]12C)OO3 (stereo partly shown) [Compound 5a] | 2.24 | 2.29 | 7.37 | 48 | 26.2 (≈ 49.9 µM) |  |
| CC(C)[C@@H](C)/C=C/[C@@H](C)[C@H]1CC[C@@H]2[C@]1(C)CC[C@H]1[C@@]23OO[C@@]2(C[C@@H](O)CC[C@]12C)C(O)C3O (stereo partly shown) [Compound 6] | 14.5 | 14.8 | 25.4 | 135 | 23.1 (≈ 50 µM) |  |
| CC(C)[C@@H](C)/C=C/[C@@H](C)[C@H]1CC[C@@H]2[C@]1(C)CC[C@H]1[C@]23C=C[C@]2(C[C@@H](OC(=O)NS(=O)(=O)c4ccccc4)CC[C@]12C)OO3 [Compound 7] | 5.6 | 5.62 | 12 | 47.1 | 26.8 (≈ 43.7 µM) | metabolic stability (mouse) clint [5]: 63.82 mL/Min/K g; half-life ([5]; female, CD-1, pooled liver microsomes, read-out: metabolic stability (mouse) t1/2 (converted)): 0.9 h; metabolic stability (human) clint [6]: 24.91 mL/Min/K g; half-life ([6]; both sexes, pooled liver microsomes, read-out: metabolic stability (human) t1/2 (converted)): 0.83 h; fraction unbound [7]: 0.0017; fraction unbound [8]: 0.0062; half-life [9]: > 48 h; half-life [10]: > 48 h |
| CC(C)[C@@H](C)C(O)C(O)[C@@H](C)[C@H]1CC[C@@H]2[C@]1(C)CC[C@H]1[C@@]23OO[C@@]2(C[C@@H](O)CC[C@]12C)C(O)C3O (stereo partly shown) [Compound 8] | 6.42 | 6.46 | 29.7 | 172 | 24.8 (≈ 50 µM) |  |
| CC(C)[C@@H](C)/C=C/[C@@H](C)[C@H]1CC[C@@H]2[C@]1(C)CC[C@H]1[C@]23C=C[C@]2(C[C@@H](OS(=O)(=O)O)CC[C@]12C)OO3 [Compound 9] | 2.7 | 2.75 | 3.47 | 50 | 15.5 (≈ 30.5 µM) |  |
| CC(C)[C@@H](C)/C=C/[C@@H](C)[C@H]1CC[C@@H]2[C@]1(C)CC[C@H]1[C@@]23OO[C@@]2(C[C@@H](OS(=O)(=O)O)CC[C@]12C)C(OS(=O)(=O)O)C3OS(=O)(=O)O (stereo partly shown) [Compound 10] | 3.11 | 3.09 | 10.7 | 77.9 | 17.8 (≈ 25.4 µM) |  |
| NC(=O)N1c2ccccc2C=Cc2ccccc21 [carbamazepine, reference compound] |  |  |  |  |  | efflux ratio at 2 h, 10 µmol/L ([11]; Caco-2, pH 7.4, Caco-2, read-out: efflux ratio (B2A/A2B)): 0.74; Papp A→B at 2 h, 10 µmol/L ([11]; Caco-2, pH 7.4, apical to basolateral): 37.6 ×10⁻⁶ cm/s; Papp B→A at 2 h, 10 µmol/L ([11]; Caco-2, pH 7.4, basolateral to apical): 27.7 ×10⁻⁶ cm/s |
| O=C(O)CCCc1ccc(N(CCCl)CCCl)cc1 [chlorambucil, reference compound] |  |  |  |  |  | half-life [12]: 18.4 h |
| CC1CC(OC(=O)C(O)c2ccccc2)CC(C)(C)N1C (stereo not shown) [eucatropine, reference compound] |  |  |  |  |  | half-life [13]: 1.87 h; half-life [14]: 0.41 h |
